Test results taken from patent publication US11773379B2, “Enzymes and reagents for measurement of short chain fatty acids” (SYSMEX CORPORATION, priority 2018, dated 2023).

Assays:
[1] = tested on: BKIII (recombinant butyrate kinase derived from Thermosediminibacter oceani); assay: Substrate specificity of butyrate kinase BKIII; type: biochemical; conditions: 100 mM sodium salt of fatty acid in second reagent, pH 7.5
Protocol: (§1) Various fatty acids shown in Table 1 were used as a substrate. The measurement was performed using a 7180 type Hitachi automatic analyzer (Hitachi High-Tech Corporation). […] PHARMA CORPORATION) • 5 U/mL ADP-HK II (ADP dependent hexokinase: […] PHARMA CORPORATION) […] In the composition of the second reagent, “sodium salts of various fatty acids” means any one kind of sodium caprylate, sodium caproate, sodium valerate, sodium isovalerate, sodium butyrate, sodium isobutyrate, sodium propionate, sodium acetate, sodium lactate, and sodium succinate. Isobutyric acid, valeric acid, isovaleric acid, caproic acid, and octanoic acid, which are commercially available fatty acids and are not sold as sodium salts, were adjusted to pH 7.5 with sodium hydroxide. […] [Measurement Parameters of Automatic Analyzer] • Analysis method: […]

[2] = tested on: BKII (recombinant butyrate kinase derived from Acetoanaerobium sticklandii); assay: Substrate specificity of butyrate kinase BKII; type: biochemical; conditions: 100 mM sodium salt of fatty acid in second reagent, pH 7.5
Protocol: as §1

[3] = Thermal stability of recombinant butyrate kinase (remaining activity); type: physicochemical; conditions: after incubating at 65° C. for 30 minutes; 50 mM potassium phosphate pH 7, 0.1% TN-100, about 1 mg/mL
Protocol: The thermal stability of BKII was examined based on the remaining activity after incubating approximately 0.3 mg/mL BKII at each temperature of 4 to 50° C. for 30 minutes in 10 mM Tris-HCl buffer (pH 7.5) containing 100 mM KCl. The thermal stability of BKIII was examined based on the remaining activity after incubating approximately 1 mg/mL BKIII in 50 mM potassium phosphate buffer (pH 7) containing 0.1% TN-100 (ADEKA Corporation) at each temperature of 4 to 80° C. for 30 minutes. The remaining activity was measured in the same manner as in Example 1. From FIGS. 12 and 13, the thermal stability (remaining activity) of BKII was 50% or more after treatment at 37° C. for 30 minutes, and the thermal stability (remaining activity) of BKIII was 85% or more after treatment at 70° C. for 30 minutes.
The thermal stability of BKIII, Thermosediminibacter oceani-derived butyrate kinase (ToBK2) prepared in Reference Example 4, Natranaerobius thermophilus-derived butyrate kinase (NtBK) prepared in Reference Example 5, and Symbiobacterium thermophilum-derived butyrate kinase (StBK) prepared in Reference Example 6 were compared. Specifically, each butyrate kinase was added to a 50 mM potassium phosphate buffer (pH 7) containing 0.1% TN-100 so that the concentration is about 1 mg/mL, and the remaining activity after incubating at 65° C. for 30 minutes was measured. The remaining activity was measured in the same manner as in Example 1.

Row | Molecule | substrate specificity, relative value when the activity value with respect to butyric acid is 100 [1] [%] | substrate specificity, relative value when the activity value with respect to butyric acid is 100 [2] [%] | remaining activity [3] [%]
1 | CCCCCC(=O)O [Caproic acid] | 56 | 22 | –
2 | CC(C)CC(=O)O [Isovaleric acid] | 148 | 133 | –
3 | CC(O)C(=O)O (centres unmarked) [Lactic acid] | 0 | 0 | –
4 | CCCCCCCC(=O)O [Octanoic acid] | 0 | 0 | –
5 | CCC(=O)O [Propionic acid] | 41 | 62 | –
6 | O=C(O)CCC(=O)O [Succinic acid] | 0 | 2 | –
7 | CCCCC(=O)O [Valeric acid] | 138 | 161 | –
8 | StBK: Symbiobacterium thermophilum-derived butyrate kinase prepared in Reference Example 6 (SEQ ID NO: 25, His tag) (protein, listed as Symbiobacterium thermophilum, His tag) MQQRLLIINPGSTSTKIAVYDDDSPLFAETLRHSAADLACFRDVAAQFPFRRDLILEALDAHGVSLSSLTAVVGRGGLLRPVRGGTYRVDAAMLAELSRAAHGEHASNLGALLAHEIAQAAGGVPAFIVDPVVVDELEPVARLTGLPEMPRRSVFHALNQKAVARRAAADLGRAYTEVNLVVVHLGGGISVGAHRRGRVVDVNNALDGEGPMAPERAGTVPSLGLVHLAFSWQHTLREVGRMLVGRGGLVAHVGTNDARRVEERIAAGDEAARVAYRAMAYQVAKEVGRAAVALGGQVDRIVLTGGLAHSEMLTGWIAEQVEWIAPVAVYPGEDEMAALAAGALRVLRGEEPAQVYGEAGE | – | – | 48.7
9 | ToBK2: Thermosediminibacter oceani-derived butyrate kinase prepared in Reference Example 4 (SEQ ID NO: 21, His tag) (protein, listed as Thermosediminibacter oceani, His tag) MEKFRILAINPGSTSTKISIFHGEEEVFTENIVHDYEELKKFKNVIEQEGYRYEAILNALAARGYSLDEIDVVVARGGILRPVKAGTYRINDLMLEDLKDAVAGEHASNVAAFIAHRIGAEKGIPAYIVDPVSVDEMEDVARISGLDGIERKSLSHALNIRRVIYKVSEKFGKDPGELNFIVAHLGGGISIGAIRRGQMVDVESANCEGPFSPERSGGLPILELIDLCFSGRFTKDELKRRLIQEGGVYSYLGTKDIREVEERTRSGDKKAALILEAMVYQIAKCIGQMATVLKGDVDFIILTGGIAKSDYISECIADRVKFIAPVERVPGEEEMKALAEAACRVMTGREKVLDYGGGE | – | – | 60.5
10 | NtBK: Natranaerobius thermophilus-derived butyrate kinase prepared in Reference Example 5 (SEQ ID NO: 23, His tag) (protein, His tag; Natranaerobius thermophiles) MKQEHRLLVINPGSTSTKIAVYEGESPLIEKKLEHSPEELNKFQDIIDQYDFRKDSILNFLDEQGMNFNKLDAVVARGGLLKPISGGTFKVNDLMVEHLRQGYQGEHASNLGGIIAKEISNQLDIPAYIVDPVVVDELQDIARISGFEPIERKSIFHALNHKAVARKAAAQLGKKYEEANLVVVHLGGGISVGAHNCGDVIDVNNALDGEGPFSPERSGGLPNGDLVRYIDEHNLTWKELKRQLVGNGGLVSYLDTNDGKKVQEMIQSGDEKAEKVYEAMIYQIAKEIGSCAVVLKGELDAIVLTGGLAHDEYLVSRMKEYIKFLGEILVFPGEDEMQSLAEGGLRVLRNEETPKDYS | – | – | 14.7
